Measured values as given in patent US6069132A, “Phosphazole compounds” (priority 1997, dated 2000).

Legend:
Format in all cases: cell-based, human
THP-1 cells = experiment: Cytotoxicity on growing THP-1 cells (MTS assay); settings: 4 days (FIG. 1A)
Description: Cytotoxicity Analysis. The cytotoxicity of the compounds were assayed using the CellTiter 96™ Aqueous Non-Radioactive Cell Proliferation (MTS) Assay kit obtained from Promega (Madison, Wis.) following the instructions provided by the supplier. The viable cell number was determined by trypan blue staining and cells (THP-1) were resuspended in PRMI supplemented with 10% FBS (GIBCO). Eighty microliters of cell suspension (1.7×10^4cells/well) was dispensed onto a 96-well microtiter plates. At this time 20 μL of drug (or control) was added to appropriate wells. Each concentration was assayed in quadruplicate. The plates were incubated at 37° C. in a humidified 5% CO2 atmosphere for 4 days and MTS assay […] for each concentration and the data obtained was used to calculate TC50 (the concentration of the compound necessary to inhibit the cell growth by 50%) for each compound.

TNFα = experiment: Inhibition of TNFα in LPS-stimulated PBMCs; settings: for inhibition at 10 µg/mL / inhibition at 50 µg/mL / inhibition at 100 µg/mL / inhibition at 250 µg/mL: Homo sapiens, PBMC; for inhibition at 10 µg/mL: 10 μg/ml; for inhibition at 50 µg/mL: 50 μg/ml; for inhibition at 100 µg/mL: 100 μg/ml; for inhibition at 250 µg/mL: 250 μg/ml
Description: (§1) Primary cell assays. Primary human peripheral blood mononuclear cells (PBMCS) were isolated as described by Ojwang et al. (114). Isolated monocytes were added to 24-well cluster plates (Costar, Cambridge, Mass.) at a concentration of 1×10^5 viable cells per well. Culture medium or test material dilutions in culture medium were added to the wells, the plates were then incubated at 37° C. for one hour. […] The plates were incubated an additional 4, 24 or 48 hours. The supernatant fluids were then harvested and centrifuged to pellet cells or cellular debris, and the supernatant fluids were stored at -70° C. until they were assayed for the presence of TNFα using a commercially available ELISA kit, such as that described in Example 46.

IL-1β = experiment: Inhibition of IL-1β in LPS-stimulated PBMCs; settings: for inhibition at 10 µg/mL / inhibition at 50 µg/mL / inhibition at 100 µg/mL / inhibition at 250 µg/mL: Homo sapiens, PBMC; for inhibition at 10 µg/mL: 10 μg/ml; for inhibition at 50 µg/mL: 50 μg/ml; for inhibition at 100 µg/mL: 100 μg/ml; for inhibition at 250 µg/mL: 250 μg/ml
Description: The phosphazole T70241 was further evaluated for its activity against IL-1β in PBMCs stumulated with LPS and aliquotes collected after 4, 24 and 48 hour post-stimulation.
as §1

MRC-5 cells = experiment: Cytotoxicity on growing MRC-5 cells (MTS)

Nc1ncnc2pc[nH]c12 (stereo not drawn) [T70241, 7-amino-1H-1,3-azaphospholo[4,5-d]pyrimidine]
effect on THP-1 growth (THP-1 cells; higher concentrations): stimulates THP-1 growth at higher concentrations | toxic effect on THP-1 cells (THP-1 cells; up to 1 mg/mL): no toxic effect on the THP-1 cells | TNFα production in PBMCs (TNFα; 48 hours post-LPS induction): significantly reduce the levels of TNFα production in the PBMCs | inhibition at 10 µg/mL (TNFα; 4 h): 0% | inhibition at 10 µg/mL (TNFα; 24 h): -3% | inhibition at 10 µg/mL (TNFα; 48 h): -9% | inhibition at 50 µg/mL (TNFα; 4 h): 50% | inhibition at 50 µg/mL (TNFα; 24 h): 58% | inhibition at 50 µg/mL (TNFα; 48 h): 51% | inhibition at 100 µg/mL (TNFα; 4 h): 76% | inhibition at 100 µg/mL (TNFα; 24 h): 81% | inhibition at 100 µg/mL (TNFα; 48 h): 79% | inhibition at 250 µg/mL (TNFα; 4 h): 76% | inhibition at 250 µg/mL (TNFα; 24 h): 84% | inhibition at 250 µg/mL (TNFα; 48 h): 82% | inhibition at 10 µg/mL (IL-1β; 4 h): 18% | inhibition at 10 µg/mL (IL-1β; 24 h): 6% | inhibition at 10 µg/mL (IL-1β; 48 h): 4% | inhibition at 50 µg/mL (IL-1β; 4 h): 86% | inhibition at 50 µg/mL (IL-1β; 24 h): 24% | inhibition at 50 µg/mL (IL-1β; 48 h): 36% | inhibition at 100 µg/mL (IL-1β; 4 h): 98% | inhibition at 100 µg/mL (IL-1β; 24 h): 78% | inhibition at 100 µg/mL (IL-1β; 48 h): 70% | inhibition at 250 µg/mL (IL-1β; 4 h): 99.7% | inhibition at 250 µg/mL (IL-1β; 24 h): 86% | inhibition at 250 µg/mL (IL-1β; 48 h): 75% | inhibition of IL-1β in PBMCs (IL-1β; up to 48 hour): inhibited IL-1β up to 48 hour in a dose dependent fashion | toxic effect on growing MRC-5 cells (MRC-5 cells; FIG. 9A, four day period): slight toxic effect on growing MRC-5 cells | TC50 Growing MRC-5 (MRC-5 cells; Table 4, 50% inhibition of logphase growing cells, 5760 min): > 50 µg/mL
